The text below walks through data of PMC8596301 (Frontiers in Pharmacology, 2021).

Each structure is given as a SMILES string. Read-outs that look alike come from different tables or passages of the source.

Data set [1] has as its target T1, δOR (Homo sapiens, UniProt P41143). As to the kind of experiment: biochemical. The class given is binding.
The target in a further data set is κOR (Homo sapiens, UniProt P41145). As to the kind of experiment: biochemical. Format: binding.
Data set [2] has as its target T2, FLAG-mouse κOR (Mus musculus, UniProt P33534).
T2 construct: expressed in transfected cells; host or cells: HEK cells (HEK-293), transient, co-transfected with pGloSensor22F
Nature of the data set: cell-based.

The test system of data set [3] is wild-type C57Bl/6 mice. As to the kind of experiment: Two-bottle choice alcohol paradigm (drinking in the dark, 10% ethanol vs. water). Format: in vivo, mouse. The settings on record: WT male mice. Here is the method: (§1) Mice were subject to drinking in the dark (DID), limited access (4 h per day), two-bottle choice (10% ethanol vs. water) paradigm in which they were trained to consume alcohol voluntarily as previously described ([Rhodes et al., 2005]; [van Rijn and Whistler, 2009]). Mice reached stable alcohol consumption within 3 weeks of training, and after the third week, drug injections were administered prior to the daily drinking session on Friday. Drug’s effect on alcohol consumption was measured as the change in Friday’s alcohol intake minus the average alcohol intake from the preceding Tuesday–Thursday of that week (g∙kg^−1). A summary of all statistical analyses for the drinking data can be found in Supplemental Tables S6–S9. In brief, results from two-bottle choice alcohol consumption paradigms were assessed for statistical significance using RM two-way ANOVA for main effects of drug dose, treatment day, and drug dose × treatment day; Sidak’s multiple comparisons (MC) between alcohol consumption baseline (Tuesday–Thursday average) vs. treatment day consumption (Friday) were then used as the post hoc test for each drug dose tested. The same RM two-way ANOVA and Sidak’s MC post hoc analyses were used for water consumption and ethanol preference data. […] Sex differences between baseline data were evaluated using RM two-way ANOVA for main effects of sex, treatment baseline, and sex × treatment baseline; Sidak’s multiple comparisons (MC) between male and female mice were then used as the post hoc test for each treatment week tested.

In a further data set the test system is δOR KO mice. The description is as above. The class given is in vivo, mouse. The settings on record: speciociliatine 30 mg∙kg^−1 i.p.; δOR KO male mice. Here is the method: as §1
Data set [4] has as its system wild-type and δOR KO male mice. Nature of the data set: Accelerating rotarod test. Format: in vivo, mouse. Here is the method:
Mice were trained to walk on a rotarod apparatus (IITC, United States) with 1.25” diameter drums 2 days prior to drug testing. The rotarod started at 3 rpm and was increased to 30 rpm over 300 s. A trial for a mouse ended when it fell and tripped the sensor, when it rode the rotarod for two consecutive revolutions, or after 300 s (the maximum trial time)([White et al., 2015]). Mice received at least 3 min of rest between trials. On test day, baseline performance was assessed as the average latency to fall in three trials per mouse. […] Each mouse’s performance was normalized to its own baseline and reported as a percentage. A summary of all statistical analyses for the rotarod data can be found in Supplemental Table S2. In brief, data for each tested timepoint were calculated as a percentage of the baseline, and thus statistical significance was calculated in a two-tailed, one sample t test vs. a hypothetical mean of 100 (baseline was 100%). Rotarod results between WT and δOR KO genotypes were compared with a mixed-effects model with fixed effects for timepoint, genotype, and timepoint × genotype.
(In the rotarod test animals must keep their balance on a rotating rod.)

The subject of data set [5] is wild-type C57Bl/6 mice. Conditions: cited from earlier work.
The next data set deals with μOR (Homo sapiens, UniProt P35372). As to the kind of experiment: biochemical. The class given is binding.
Chain of μOR (P35372 whole entry): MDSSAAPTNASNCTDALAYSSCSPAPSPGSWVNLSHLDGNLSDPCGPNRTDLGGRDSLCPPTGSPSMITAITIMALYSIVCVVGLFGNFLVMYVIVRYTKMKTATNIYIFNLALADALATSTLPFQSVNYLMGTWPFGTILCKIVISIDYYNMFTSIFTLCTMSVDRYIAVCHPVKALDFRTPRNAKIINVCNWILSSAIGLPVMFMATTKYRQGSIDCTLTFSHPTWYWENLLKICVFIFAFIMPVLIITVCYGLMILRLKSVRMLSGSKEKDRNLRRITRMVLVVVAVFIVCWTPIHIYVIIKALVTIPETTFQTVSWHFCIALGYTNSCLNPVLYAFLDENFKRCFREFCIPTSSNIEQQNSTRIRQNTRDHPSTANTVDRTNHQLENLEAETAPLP
The target in data set [6] is T3, HA-mouse µOR (Mus musculus, UniProt P42866).
T3 construct: expressed in transfected cells; host or cells: HEK cells (HEK-293), transient, co-transfected with pGloSensor22F
T3 sequence (P42866 whole entry): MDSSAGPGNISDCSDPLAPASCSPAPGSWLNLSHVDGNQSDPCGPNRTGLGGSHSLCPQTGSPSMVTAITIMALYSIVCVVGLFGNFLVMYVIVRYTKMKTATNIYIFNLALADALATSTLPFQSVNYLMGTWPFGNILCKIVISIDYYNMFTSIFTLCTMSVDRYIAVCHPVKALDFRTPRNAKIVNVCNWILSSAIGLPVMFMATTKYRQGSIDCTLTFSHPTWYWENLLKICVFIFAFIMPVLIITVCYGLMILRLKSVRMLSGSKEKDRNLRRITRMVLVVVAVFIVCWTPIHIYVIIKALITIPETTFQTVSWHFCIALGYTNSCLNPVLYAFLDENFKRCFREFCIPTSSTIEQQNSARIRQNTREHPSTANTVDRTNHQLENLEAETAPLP
Nature of the data set: cell-based. The settings on record: for Emax: HEK293, read-out: cAMP α (% inhibition at maximal efficacy).

In data set [7] the target is T4, FLAG-mouse δOR (Mus musculus, UniProt P32300).
T4 construct: expressed in transfected cells; host or cells: HEK cells (HEK-293), transient, co-transfected with pGloSensor22F
T4 sequence (P32300 whole entry): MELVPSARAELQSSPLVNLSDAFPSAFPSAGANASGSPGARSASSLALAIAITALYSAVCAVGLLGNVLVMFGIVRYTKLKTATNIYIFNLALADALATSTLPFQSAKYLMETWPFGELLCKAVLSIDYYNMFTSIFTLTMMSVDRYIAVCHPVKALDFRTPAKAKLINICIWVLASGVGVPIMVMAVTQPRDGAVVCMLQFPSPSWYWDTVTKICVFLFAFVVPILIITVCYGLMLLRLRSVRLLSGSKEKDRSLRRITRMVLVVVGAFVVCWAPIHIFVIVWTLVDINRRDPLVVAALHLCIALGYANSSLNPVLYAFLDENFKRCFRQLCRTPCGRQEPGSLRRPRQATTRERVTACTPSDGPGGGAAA
Nature of the data set: cell-based. Conditions: for Emax: HEK293, read-out: cAMP α (% inhibition at maximal efficacy).

The target of data set [8] is T3, HA-mouse µOR. The settings on record: cited from earlier work.
The target in data set [9] is T4, FLAG-mouse δOR. Also noted: method as in Gutridge et al., 2020. The settings on record: cited from earlier work.
The target of data set [10] is T2, FLAG-mouse κOR. Further details: method as in Gutridge et al., 2020. Conditions: cited from earlier work.
Data set [11] concerns C57Bl/6 male mice. Conditions: 3 mg∙kg^−1; ref Gutridge et al., 2020; cited from earlier work.
The subject of data set [12] is C57Bl/6 male mice. Nature of the data set: Locomotor evaluation (ambulation). The settings on record: 7-hydroxymitragynine 3 mg∙kg^−1 i.p.; naloxone 1 mg∙kg^−1 s.c. 10 min prior; WT male mice; 90 min.
The target of data set [13] is T1, δOR. Also noted: expressed in transfected cells; method as in Gutridge et al., 2020. The settings on record: ref Gutridge et al., 2020; cited from earlier work.
Where [14] appears, read: speciociliatine 3, 10 and 30 mg∙kg^−1 i.p.
Where [15] appears, read: 30 mg∙kg^−1 i.p., wild-type mice.
Where [16] appears, read: read-out: cAMP IC50, ref Gutridge et al., 2020.
The mark [17] stands for this setting: 7-hydroxypaynantheine 30 mg∙kg^−1 s.c.

Chain of κOR (P41145 whole entry): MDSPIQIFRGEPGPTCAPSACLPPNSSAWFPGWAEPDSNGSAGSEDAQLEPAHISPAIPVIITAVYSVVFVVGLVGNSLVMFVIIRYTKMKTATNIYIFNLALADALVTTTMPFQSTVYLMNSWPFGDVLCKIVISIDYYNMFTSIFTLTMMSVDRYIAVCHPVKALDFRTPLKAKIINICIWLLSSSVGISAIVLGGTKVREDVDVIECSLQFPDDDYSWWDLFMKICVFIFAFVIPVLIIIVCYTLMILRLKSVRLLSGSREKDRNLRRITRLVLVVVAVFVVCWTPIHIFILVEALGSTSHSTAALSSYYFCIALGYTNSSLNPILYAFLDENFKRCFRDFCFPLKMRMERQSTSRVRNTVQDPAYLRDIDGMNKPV
T2 sequence (P33534 whole entry): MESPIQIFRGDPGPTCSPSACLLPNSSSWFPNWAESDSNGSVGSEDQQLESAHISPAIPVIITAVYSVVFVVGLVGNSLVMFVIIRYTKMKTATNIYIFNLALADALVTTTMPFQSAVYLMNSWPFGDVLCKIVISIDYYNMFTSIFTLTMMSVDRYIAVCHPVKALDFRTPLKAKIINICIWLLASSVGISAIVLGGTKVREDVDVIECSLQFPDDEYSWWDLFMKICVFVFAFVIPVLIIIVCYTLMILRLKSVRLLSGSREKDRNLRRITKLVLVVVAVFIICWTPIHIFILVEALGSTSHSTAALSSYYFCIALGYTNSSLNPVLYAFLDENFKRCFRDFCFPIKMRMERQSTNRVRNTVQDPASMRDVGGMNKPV
T1 sequence (P41143 whole entry): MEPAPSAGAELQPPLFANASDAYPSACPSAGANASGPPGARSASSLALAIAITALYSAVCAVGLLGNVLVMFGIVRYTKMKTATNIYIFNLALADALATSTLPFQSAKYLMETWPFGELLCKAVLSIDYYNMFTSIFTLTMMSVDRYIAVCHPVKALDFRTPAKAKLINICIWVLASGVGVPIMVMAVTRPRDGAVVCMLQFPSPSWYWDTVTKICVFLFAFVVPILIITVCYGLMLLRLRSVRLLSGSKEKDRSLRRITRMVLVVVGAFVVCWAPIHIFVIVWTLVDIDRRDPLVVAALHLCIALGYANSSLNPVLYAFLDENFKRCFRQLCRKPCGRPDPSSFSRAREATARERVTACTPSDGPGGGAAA

Take `CC[C@@H]1CN2CCc3c([nH]c4cccc(OC)c34)[C@H]2C[C@@H]1/C(=C\OC)C(=O)OC` [SPECIO, speciociliatine]: the Ki on δOR [1] amounted to 4340 nM. The molecule further came in with a Ki at κOR (Binding Ki (µM)) of 0.59 µM. Also, on FLAG-mouse κOR [2] (HEK293, read-out: cAMP α (% inhibition at maximal efficacy)), the Emax was determined as 60 ± 7%. In the data set on wild-type C57Bl/6 mice [3] (30 mg∙kg^−1 i.p.), the “Average decrease in ethanol consumption” value turned out to be 2.5 ± 0.3 g/kg and the “Reduction in ethanol consumption” value is recorded as 90 ± 3%. In the data set on wild-type C57Bl/6 mice [3] (speciociliatine 30 mg∙kg^−1 i.p.), the Ethanol preference entry is reported as “significantly decreased”. Moreover, in the data set with wild-type C57Bl/6 mice [3] (setting [14]), the Ethanol consumption entry is “significantly decreased ethanol consumption but only at the 30 mg∙kg^−1 dose” and the Water consumption entry is recorded as “did not change water consumption”. In the data set on δOR KO mice, the Ethanol preference entry was “significantly decreased” and the Water consumption entry was “did not change water consumption”. For the same molecule, in data set [4] (30 mg/kg i.p., one δOR KO mouse), the “Seizure level observed in the rotarod assay” value was 5–6. Also, the “Mortality in the rotarod assay” value in [4] (30 mg/kg i.p., δOR KO mice (n = 8)) is “one δOR KO mouse died”. For the same molecule, in data set [4] (setting [15]), the “Rotarod performance (latency to fall, % of baseline)” value is listed as “significantly reduced the ability” and the “Time of full recovery on rotarod” value was 120 min. In addition, the Rotarod performance entry in data set [4] (30 mg∙kg^−1 i.p., δOR KO mice) is “same effect was observed”.
Regarding `Oc1ccc2c3c1O[C@H]1c4oc5ccccc5c4C[C@@]4(O)[C@@H](C2)N(CC2CC2)CC[C@]314` [naltriben], the Alcohol consumption result in the data set with wild-type C57Bl/6 mice [5] (6 and 10 mg∙kg^−1, ref van Rijn and Whistler, 2009) is “dose-dependently decreases alcohol consumption”.
For the molecule `CC[C@H]1CN2CC[C@]3(Nc4cccc(OC)c4C3=O)[C@@H]2C[C@@H]1/C(=C\OC)C(=O)OC` [SPG PI, Speciogynine Pseudoindoxyl], the Ki at μOR came to 77 nM; at δOR [1], 940 nM; at κOR, 0.75 µM. For the same molecule, the IC50 against HA-mouse µOR [6] was 0.23 µM; against FLAG-mouse δOR [7], 8.53 µM; on FLAG-mouse κOR [2] it was 20.6 µM. The results for the Emax on HA-mouse µOR [6] and on FLAG-mouse δOR [7] were 58 ± 4% and 80 ± 20%, respectively.
On to `CC[C@@H]1CN2CC[C@@]3(O)C(=Nc4cccc(OC)c43)[C@@H]2C[C@@H]1/C(=C\OC)C(=O)OC` [7-OH MITRA, 7-hydroxymitragynine, reference compound], for which the Ki on δOR [1] stood at 190 nM; on κOR (Binding Ki (µM)) it was 0.14 µM. Also, the “cAMP α” value at HA-mouse µOR [8] is recorded as 84 ± 3; on FLAG-mouse δOR [9] (normalized to Leu-enkephalin, ref Gutridge et al., 2020), 80 ± 8; at FLAG-mouse κOR [10] (normalized to U50,488, ref Gutridge et al., 2020), 77 ± 5. For the same molecule, the IC50 at FLAG-mouse δOR [9] (setting [16]) was 960 nM; at FLAG-mouse κOR [10] (setting [16]), 1040 nM. In addition, the “Minimal effective dose to reduce alcohol intake” value in the data set on wild-type C57Bl/6 mice [5] (ref Gutridge et al., 2020) was 3 mg/kg. Further, the “Hyperlocomotion and CPP” value in the data set with C57Bl/6 male mice [11] is “caused both hyperlocomotion and CPP”. Also, the “Hyperlocomotion induced by 7-hydroxymitragynine after naloxone pretreatment” value in the data set on C57Bl/6 male mice [12] was “blocked”. At δOR [13], the “β-arrestin 2 α” value is given as 14 ± 1.
`COc1ccsc1CNCC[C@@]1(c2ccccn2)CCOC2(CCCC2)C1` [Oliceridine/TRV130, Oliceridine]: in the data set with wild-type C57Bl/6 mice [5] (selective activation of μOR G-protein signaling, ref Gutridge et al., 2020), the Alcohol consumption result is given as “did not decrease alcohol consumption”.
Consider `Oc1ccc2c3c1O[C@H]1c4[nH]c5ccccc5c4C[C@@]4(O)[C@@H](C2)N(CC2CC2)CC[C@]314` [naltrindole], for which the Alcohol intake result with wild-type C57Bl/6 mice [5] (10 mg∙kg^−1, ref van Rijn and Whistler, 2009) was “does not decrease alcohol intake”.
Consider `CC[C@H]1CN2CCc3c([nH]c4cccc(OC)c34)[C@@H]2C[C@@H]1/C(=C\OC)C(=O)OC` [SPG, speciogynine], for which the figures for the Ki at κOR (Binding Ki (µM)) and on κOR (Binding pKi) were 3 µM and 3.98 µM, respectively.
As to `C=CC1CN2CCC3(Nc4cccc(OC)c4C3=O)C2CC1C(=COC)C(=O)OC` (centres unmarked) [PAYN PI, Paynantheine Pseudoindoxyl], the Ki is 680 nM on μOR, 920 nM on δOR [1] and 1.31 µM at κOR (Binding Ki (µM)). This molecule also registered an IC50 on HA-mouse µOR [6] of 4.82 µM. Besides, the Emax on HA-mouse µOR [6] was found to be 60 ± 6%.
On μOR, `C=C[C@H]1CN2CC[C@@]3(O)C(=Nc4cccc(OC)c43)[C@@H]2C[C@@H]1/C(=C\OC)C(=O)OC` [7OH PAYN, 7-Hydroxypaynantheine] returned a Ki of 6150 nM. The Ki on δOR [1] is 12700 nM. The molecule further registered a Ki at κOR (Binding Ki (µM)) of 7.46 µM. On HA-mouse µOR [6], the IC50 was 21.8 µM and the Emax amounted to 80 ± 40%. On FLAG-mouse δOR [7], the IC50 was 5.74 µM and the Emax worked out at 70 ± 20%. Besides, in the data set with wild-type C57Bl/6 mice [3] (30 mg∙kg^−1 s.c.), the “Decrease in ethanol consumption” value amounted to 1.1 ± 0.3 g/kg and the “Reduction in ethanol consumption” value is reported as 40 ± 11%. Further, in the data set with wild-type C57Bl/6 mice [3] (setting [17]), the Ethanol preference entry was “corresponding decrease in ethanol preference” and the Water consumption entry is on record as “concomitant increase in water consumption”. The Alcohol intake result in the data set on wild-type C57Bl/6 mice [3] (7-hydroxypaynantheine 10 and 30 mg∙kg^−1 s.c.) is “significantly reduce alcohol intake”.

A word on the Ki: it is a measure of affinity in units of concentration, obtained from inhibition or displacement. Broadly, the IC50 is the midpoint of a concentration-inhibition curve.
